{"source": "patent US20250285714A1", "about": "“A PHARMACEUTICAL PLATFORM TECHNOLOGY FOR DRUG DISCOVERY AND CONSUMER HEALTH PRODUCT DEVELOPMENT” (SINOVEDA CANADA INC., priority 2021, published 2025)", "format_in_all_cases": "cell-based, human", "key": {"HepG2 cells [1]": {"tested_on": "HepG2 cells", "test": "rtPCR TaqMan array of cancer pathway genes in treated HepG2 cells", "conditions": "6 h; CBD 17, CBC 23, CBN 20, 1:1:1 17, sorafenib 12 μg/ml", "procedure": "rt-PCR: Target cancer gene pathways will be analyzed using a custom Taqman array card exploring 91 unique genes involved with a few cancer pathways.\nTwo million HepG2 cells in IMDM media with 20% FBS, and 1% ethanol were seeded in T75 flasks and incubated at 37° C., 7.5% CO2 until 70-80% confluent (approx. […]). The media were replenished with media containing individual cannabinoids (CBD 17 μg/ml, CBC 23 μg/ml, CBN 20 μg/ml) and cannabinoid mixture of CBD:CBC:CBN of 1:1:1 (17 μg/ml) and incubated for 6 hours prior to harvest. […] Untreated cells were included as a negative control Glyceraldehyde-3-phosphate dehydrogenase (GAPDH) was included as an endogenous control and used for normalization of the data.\nRNA was extracted using Invitrogen's Dynabead mRNA DIRECT kit using the recommended protocol to provide 50 μL of a purified mRNA solution. […] of RT master mix was mixed into the mRNA solution and the mixture left to react at 37° C. for 60 minutes. Reverse transcriptase inactivation was performed at 95° C. for 5 minutes and the resulting cDNA samples were kept at 4° C. until use. Fifty-five microliters of TaqMan Fast Advance master mix were added to an equal amount of cDNA sample containing 1 μg/100 μl of cDNA, which was loaded into each card reservoir. The cards were centrifuged twice at 1200 RPM for 3 minutes in a Legend XFR centrifuge and the rtPCR reaction was conducted in a QuantStudio7 PCR instrument using the standard settings with 40 amplification cycles.\nAssessment of cancer gene pathways were carried out using custom designed TaqMan array cards exploring 86 genes linked to numerous cancer related pathways. […] In addition to individual pathways, genes linked to specific cellular processes were also explored."}, "HepG2 cells [2]": {"tested_on": "HepG2 cells", "test": "HepG2 cell proliferation XTT assay", "conditions": "HepG2 in-vitro cell model", "procedure": "Cell assays: HepG2 cells were obtained from the American Type Culture Collection (ATCC). Cryopreserved cells in DMEM with 10% DMSO were thawed and diluted 10-fold in phenol red free DMEM media containing fetal 10% bovine serum, 100 μg/ml penicillin/streptomycin, supplemented with Glutamax™ and sodium pyruvate. Subsequently, cells were centrifuged at 20 g for 10 minutes. The cells were resuspended in the same media to a concentration of 2×10^5 cells/ml. Ninety-six well cell culture treated flat bottom plates were seeded with 7.5×10^3 HepG2 cells and incubated at 37° C., 5% CO2, >95% relative humidity for 18 hours to allow cellular adhesion after which media was replaced with like media containing 1-20% FBS and various test compounds (50 μg/ml to 50 ng/ml). […] Formazan production was measured 450 nm Varioskan lux at on a spectrophotometer. Non-specific absorption was measured at 660 nm and subtracted from the reference measurement at 450 nm. […]\nTernary cannabinoid assays: For tertiary cannabinoid compound mixtures, ratio mixtures of CBD:CBC:CBN were randomly chosen between 9:3:1 to 1:1:1 and CBN:CBC:CBD between 3:2:1 to 1:1:1 in IMDM media supplemented with 20% FBS and 1% ethanol and CBD:CBC:CBN ratios between 9:3:1 to 1:1:1 in DMEM media supplemented with 1% FBS. Cannabinoids were mixed and diluted in the media ready for serial dilution. […]"}, "HepG2 cells [3]": {"tested_on": "HepG2 cells", "test": "In-cell Western-blot protein expression in treated HepG2 cells", "conditions": "six hour treatment; CBD 17, CBC 23, CBN 20, Sorafenib 12, SCI-111 17, SCI-521 17 μg/ml", "procedure": "In-cell Western-blot analysis: Protein expression was assessed by seeding 1000 HepG2 cells/well from cyro frozen stocks into 384 well optical bottom black culture plates from Thermo-Scientific (item 142761) in IMDM media with 20% FBS and 1% ethanol. […] After a six hour treatment, the cells were fixated with 4% formaldehyde for 15 minutes, permeated with 0.1% triton-x100 for 10 minutes, and left in blocking buffer (phosphate buffered saline (PBS) with 3% bovine serum albumin (BSA)) overnight at 4 degrees Celsius. The following day, the cells were rinsed with PBS, incubated with 25 μl PBS containing primary antibody (Table 1) for 3 hours at 25° C. Subsequently, the primary antibody was removed, cells were rinsed twice with PBS, and incubated with 25 μl of PBS containing the secondary antibody (Rabbit: Alexa Fluor 790 donkey anti-rabbit IgG (H+L) Lot 2409042; Mouse: Alexa Fluor 790 donkey anti-mouse IgG (H+L) Lot 2300923) at a concentration of 1:2000. Draq5 (1:2000) was added for normalization of data. After an hour incubation in the secondary antibody, the cells were rinsed with PBS and readings at 700 and 800 nm were acquired on a Licor Odyssey fluorescence imager with a resolution of 21 μm. Analysis was subsequently performed with Empiria Studio 2.1. A total of 5 samples were collected per antibody and the sample size was reduced to 3 for the statistical analysis."}}}
{"smiles": "C=C(C)[C@@H]1CCC(C)=C[C@H]1c1c(O)cc(CCCCC)cc1O", "note": "[CBD, Cannabidiol, reference compound]", "values": [{"measurement": "rtPCR Log2 fold change relative to untreated cells, BAD (Apoptosis)", "setting": "HepG2 cells [1]", "result": "−1.49", "unit": "Log2 fold change"}, {"measurement": "rtPCR Log2 fold change relative to untreated cells, BAX (Apoptosis)", "setting": "HepG2 cells [1]", "result": "−1.103", "unit": "Log2 fold change"}, {"measurement": "rtPCR Log2 fold change relative to untreated cells, BCL2 (Apoptosis)", "setting": "HepG2 cells [1]", "result": 4.139, "unit": "Log2 fold change"}, {"measurement": "rtPCR Log2 fold change relative to untreated cells, BCL2L1 (Apoptosis)", "setting": "HepG2 cells [1]", "result": "−1.414", "unit": "Log2 fold change"}, {"measurement": "rtPCR Log2 fold change relative to untreated cells, CAMK1 (Ca signaling)", "setting": "HepG2 cells [1]", "result": "−1.329", "unit": "Log2 fold change"}, {"measurement": "rtPCR Log2 fold change relative to untreated cells, CASP3 (Apoptosis)", "setting": "HepG2 cells [1]", "result": "−1.165", "unit": "Log2 fold change"}, {"measurement": "rtPCR Log2 fold change relative to untreated cells, CCND1 (Cell Cycle Arrest)", "setting": "HepG2 cells [1]", "result": "−1.396", "unit": "Log2 fold change"}, {"measurement": "rtPCR Log2 fold change relative to untreated cells, CCND2 (Cell Cycle Arrest)", "setting": "HepG2 cells [1]", "result": "−1.032", "unit": "Log2 fold change"}, {"measurement": "rtPCR Log2 fold change relative to untreated cells, CDK1 (Cell Cycle Arrest)", "setting": "HepG2 cells [1]", "result": "−1.257", "unit": "Log2 fold change"}, {"measurement": "rtPCR Log2 fold change relative to untreated cells, CDK4 (Cell Cycle Arrest)", "setting": "HepG2 cells [1]", "result": "−1.517", "unit": "Log2 fold change"}, {"measurement": "rtPCR Log2 fold change relative to untreated cells, CDK6 (Cell Cycle Arrest)", "setting": "HepG2 cells [1]", "result": "−1.224", "unit": "Log2 fold change"}, {"measurement": "rtPCR Log2 fold change relative to untreated cells, CTNNB1 (Cellular Adhesion)", "setting": "HepG2 cells [1]", "result": "−1.164", "unit": "Log2 fold change"}, {"measurement": "rtPCR Log2 fold change relative to untreated cells, GSK3B (Cellular Adhesion)", "setting": "HepG2 cells [1]", "result": "−1.409", "unit": "Log2 fold change"}, {"measurement": "rtPCR Log2 fold change relative to untreated cells, MAP1LC3A (MAP kinase)", "setting": "HepG2 cells [1]", "result": "−1.527", "unit": "Log2 fold change"}, {"measurement": "rtPCR Log2 fold change relative to untreated cells, MAP3K (MAP kinase)", "setting": "HepG2 cells [1]", "result": "−1.213", "unit": "Log2 fold change"}, {"measurement": "rtPCR Log2 fold change relative to untreated cells, MAPK8 (MAP kinase)", "setting": "HepG2 cells [1]", "result": "−2.27", "unit": "Log2 fold change"}, {"measurement": "rtPCR Log2 fold change relative to untreated cells, MITF (Drug Resistance)", "setting": "HepG2 cells [1]", "result": "−4.196", "unit": "Log2 fold change"}, {"measurement": "rtPCR Log2 fold change relative to untreated cells, MNT (Cell Cycle Arrest)", "setting": "HepG2 cells [1]", "result": "−1.533", "unit": "Log2 fold change"}, {"measurement": "rtPCR Log2 fold change relative to untreated cells, MTOR (PI3K/AKT/MTOR)", "setting": "HepG2 cells [1]", "result": "−1.055", "unit": "Log2 fold change"}, {"measurement": "rtPCR Log2 fold change relative to untreated cells, PAK3 (MAP kinase)", "setting": "HepG2 cells [1]", "result": "−1.926", "unit": "Log2 fold change"}, {"measurement": "rtPCR Log2 fold change relative to untreated cells, PIK3C2A (PI3K/AKT/MTOR)", "setting": "HepG2 cells [1]", "result": "−1.161", "unit": "Log2 fold change"}, {"measurement": "rtPCR Log2 fold change relative to untreated cells, PPARG (Receptors)", "setting": "HepG2 cells [1]", "result": "−1.826", "unit": "Log2 fold change"}, {"measurement": "rtPCR Log2 fold change relative to untreated cells, RAC1 (MAP kinase)", "setting": "HepG2 cells [1]", "result": "−1.274", "unit": "Log2 fold change"}, {"measurement": "rtPCR Log2 fold change relative to untreated cells, RASA1 (MAP kinase)", "setting": "HepG2 cells [1]", "result": "−1.356", "unit": "Log2 fold change"}, {"measurement": "rtPCR Log2 fold change relative to untreated cells, ROCK1 (Cellular Adhesion)", "setting": "HepG2 cells [1]", "result": "−1.013", "unit": "Log2 fold change"}, {"measurement": "rtPCR Log2 fold change relative to untreated cells, SMAD2 (TGF signaling)", "setting": "HepG2 cells [1]", "result": "−1.437", "unit": "Log2 fold change"}, {"measurement": "rtPCR Log2 fold change relative to untreated cells, TAZ (HIPPO)", "setting": "HepG2 cells [1]", "result": "−1.766", "unit": "Log2 fold change"}, {"measurement": "rtPCR Log2 fold change relative to untreated cells, gene name not printed (Apoptosis, row r54)", "setting": "HepG2 cells [1]", "result": "−1.09", "unit": "Log2 fold change"}, {"measurement": "rtPCR Log2 fold change relative to untreated cells, gene name not printed (Cell Cycle Arrest, row r42)", "setting": "HepG2 cells [1]", "result": "−1.332", "unit": "Log2 fold change"}, {"measurement": "rtPCR Log2 fold change relative to untreated cells, gene name not printed (Cellular Adhesion, row r57)", "setting": "HepG2 cells [1]", "result": "−1.436", "unit": "Log2 fold change"}, {"measurement": "rtPCR Log2 fold change relative to untreated cells, gene name not printed (PI3K/AKT/MTOR, row r20)", "setting": "HepG2 cells [1]", "result": "−1.565", "unit": "Log2 fold change"}, {"measurement": "rtPCR Log2 fold change relative to untreated cells, gene name not printed (PI3K/AKT/MTOR, row r22)", "setting": "HepG2 cells [1]", "result": "−1.174", "unit": "Log2 fold change"}, {"measurement": "rtPCR Log2 fold change relative to untreated cells, gene name not printed (Receptors, row r7)", "setting": "HepG2 cells [1]", "result": "−6.09", "unit": "Log2 fold change"}, {"measurement": "Potency/efficacy compared to sorafenib", "setting": "HepG2 cells [2]", "result": "more potent"}, {"measurement": "Protein fold change, DVLD (Cellular Adhesion)", "setting": "HepG2 cells [3]", "result": 1.67, "unit": "Fold change"}, {"measurement": "Protein fold change, HER2 (Receptor)", "setting": "HepG2 cells [3]", "result": 1.34, "unit": "Fold change"}, {"measurement": "Protein fold change, MEK PO4 (MAP kinase/PI3K)", "setting": "HepG2 cells [3]", "result": 1.40, "unit": "Fold change"}, {"measurement": "Protein fold change, MET PO4 (Receptor)", "setting": "HepG2 cells [3]", "result": 1.52, "unit": "Fold change"}, {"measurement": "Protein fold change, PI3K (MAP kinase/PI3K)", "setting": "HepG2 cells [3]", "result": 2.05, "unit": "Fold change"}, {"measurement": "Protein fold change, PTEN (MAP kinase/PI3K)", "setting": "HepG2 cells [3]", "result": 0.80, "unit": "Fold change"}, {"measurement": "Protein fold change, TEAD2 (HIPPO signaling)", "setting": "HepG2 cells [3]", "result": 1.46, "unit": "Fold change"}, {"measurement": "Protein fold change, VEGA (Angiogenesis)", "setting": "HepG2 cells [3]", "result": 1.33, "unit": "Fold change"}, {"measurement": "Protein fold change, c-MYC (Apoptosis)", "setting": "HepG2 cells [3]", "result": 1.55, "unit": "Fold change"}, {"measurement": "Protein fold change, p53 (Apoptosis)", "setting": "HepG2 cells [3]", "result": 1.28, "unit": "Fold change"}]}
